Laboratory results taken from the NIST ThermoML archive (doi:10.1016/j.fluid.2012.01.014).

Columns and labels:
[1] = cn = amount concentration of the nth substance listed, in mol/dm3; conditions: Ring tensiometer
[2] = Ring tensiometer

CCCCCCCCCCCCCCCCS(=O)(=O)[O-].[Na+] [sodium hexadecylsulfonate] + O
surface tension liquid-gas [mN/m], [1]
Conditions	293 K	303 K	313 K
c1 = 1e-08	72.8	71.2	69.6
c1 = 1e-07	72.8	71.19	69.6
c1 = 1e-06	72.7	71.15	69.55
c1 = 3.98e-06	72.6	70.99	69.42
c1 = 5.01e-06	72.5	70.89	69.31
c1 = 6.03e-06	72.4	70.77	69.21
c1 = 7.94e-06	72.3	70.69	69.09
c1 = 1e-05	72.2	70.54	68.99
c1 = 2e-05	71.6	69.98	68.41
c1 = 6.03e-05	69	68.49	67.04
c1 = 0.0001	66.2	65.54	64.15
c1 = 0.0002	59.15	58.94	58.84
c1 = 0.000603	43.23	43.17	43.12
c1 = 0.000741	40.28	40.07	39.97
c1 = 0.000891	–	38.59	38.55

CCCCCCCCCCCCN(C)CC(=O)[O-].[Na+] [sodium laurylsarcosinate] + O
surface tension liquid-gas [mN/m], [1]
Conditions	293 K	303 K	313 K
c1 = 1e-07	72.4	71.19	69.59
c1 = 5.01e-07	72.2	71.15	69.56
c1 = 1e-06	72	71.1	69.52
c1 = 5.01e-06	71.6	70.72	69.2
c1 = 1e-05	71.4	70.28	68.83
c1 = 5.01e-05	69	67.57	66.49
c1 = 0.0001	65.5	65.33	64.45
c1 = 0.000501	48.6	48.46	48.32
c1 = 0.000631	46.3	46.1	46
c1 = 0.000708	44.9	44.03	43.82
c1 = 0.000794	43.6	42.91	42.71
c1 = 0.000891	42.3	41.85	41.15
c1 = 0.001	41.1	40.33	39.51
c1 = 0.002	32.9	32.39	31.83
c1 = 0.00316	28.3	28	27.5
c1 = 0.00398	26.9	26.65	26.12
c1 = 0.00501	26.5	26.45	25.48
c1 = 0.01	26.5	26.45	25.42

CCCCCCCCCCCCCC[N+](C)(C)C.[Br-] [tetradecyltrimethylammonium bromide] + O
surface tension liquid-gas [mN/m], [1]
Conditions	293 K	313 K
c1 = 1e-07	72.4	69.59
c1 = 5.01e-07	72.3	69.54
c1 = 1e-06	72.2	69.48
c1 = 5.01e-06	71.7	69.03
c1 = 1e-05	71.6	68.49
c1 = 5.01e-05	70.8	67.49
c1 = 0.0001	69.9	66.58
c1 = 0.0002	66.7	63.61
c1 = 0.000501	59.1	58.43
c1 = 0.000631	56.1	55.41
c1 = 0.000708	54.6	53.85
c1 = 0.000794	53.7	52.61
c1 = 0.000891	52.7	51.54
c1 = 0.001	51.9	50.21
c1 = 0.002	43.7	42.65
c1 = 0.00316	36.7	36.05
c1 = 0.00398	36.3	35.38
c1 = 0.00501	36.3	35.38
c1 = 0.00708	36.3	35.38
c1 = 0.01	36.3	35.38

O [water]
[2]
Conditions	surface tension liquid-gas [mN/m]
293 K	72.8
303 K	71.2
313 K	69.6

O [water] + CCCCCCCCCCCCCCCCS(=O)(=O)[O-].[Na+]
[1], c2 = 0
Conditions	surface tension liquid-gas [mN/m]
293 K	72.8
303 K	71.2
313 K	69.6

O [water] + CCCCCCCCCCCCCCCC[N+](C)(C)C.[Br-]
[1], c2 = 0
Conditions	surface tension liquid-gas [mN/m]
293 K	72.8
303 K	71.2
313 K	69.6

O [water] + CCCCCCCCCCCCCCCC[n+]1ccccc1.[Br-]
[1], c2 = 0
Conditions	surface tension liquid-gas [mN/m]
293 K	72.8
303 K	71.2
313 K	69.6

O [water] + CCCCCCCCCCCCCC[N+](C)(C)C.[Br-]
[1], c2 = 0
Conditions	surface tension liquid-gas [mN/m]
293 K	72.8
313 K	69.6

O [water] + CCCCCCCCCCCCN(C)CC(=O)[O-].[Na+]
[1], c2 = 0
Conditions	surface tension liquid-gas [mN/m]
293 K	72.8
303 K	71.2
313 K	69.6

O [water] + CCCCCCCCCCCCOS(=O)(=O)[O-].[Na+]
[1], c2 = 0
Conditions	surface tension liquid-gas [mN/m]
293 K	72.8
303 K	71.2
313 K	69.6

O [water] + CCCCCCCCCCCC[N+](C)(C)CC.[Br-]
[1], c2 = 0
Conditions	surface tension liquid-gas [mN/m]
293 K	72.8
303 K	71.2
313 K	69.6

O [water] + CCCCCCCCCCCC[N+](C)(C)Cc1ccccc1.[Br-]
[1], c2 = 0
Conditions	surface tension liquid-gas [mN/m]
293 K	72.8
303 K	71.2
313 K	69.6
